Values joined by “and” are separate entries in the source; they are usually repeats but may differ in a detail not shown here. Equal values may be shown once. Results filed as inconclusive are left out.
Tested on: CD8F1 mice, subcutaneous mammary adenocarcinoma, T/C%
Test: NCI In Vivo Anticancer Drug Screen. Data for tumor model Mammary Adenocarcinoma CD8F1 (subcutaneous) in CD8F1
Details: higher = larger tumour
How it was run: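 Compound-treated versus vehicle-treated mice with transplantable tumors; survival or tumor size compared as T/C.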

[1] = endpoint: median tumor weight (est.), dose: 12.5 mg/kg/injection, schedule: Q07DX005 (ip), vehicle: saline
[2] = endpoint: median tumor weight (est.), dose: 25.0 mg/kg/injection, schedule: Q07DX005 (ip), vehicle: saline
[3] = endpoint: median tumor weight (est.), dose: 50.0 mg/kg/injection, schedule: Q07DX005 (ip), vehicle: saline
[4] = endpoint: median tumor weight (est.), dose: 100.0 mg/kg/injection, schedule: Q07DX005 (ip), vehicle: saline
[5] = endpoint: median tumor weight (est.), dose: 200.0 mg/kg/injection, schedule: Q07DX005 (ip), vehicle: saline
[6] = endpoint: median tumor weight (est.), dose: 25.0 mg/kg/injection, schedule: Q07DX005 (ip), vehicle: suspension in saline
[7] = endpoint: median tumor weight (est.), dose: 50.0 mg/kg/injection, schedule: Q07DX005 (ip), vehicle: suspension in saline
[8] = endpoint: median tumor weight (est.), dose: 100.0 mg/kg/injection, schedule: Q07DX005 (ip), vehicle: suspension in saline
[9] = endpoint: median tumor weight (est.), dose: 200.0 mg/kg/injection, schedule: Q07DX005 (ip), vehicle: suspension in saline
[10] = endpoint: median tumor weight (est.), dose: 25.0 mg/kg/injection, schedule: Q07DX005 (ip), vehicle: saline with Tween-80
[11] = endpoint: median tumor weight (est.), dose: 50.0 mg/kg/injection, schedule: Q07DX005 (ip), vehicle: saline with Tween-80
[12] = endpoint: median tumor weight (est.), dose: 100.0 mg/kg/injection, schedule: Q07DX005 (ip), vehicle: saline with Tween-80

## O=C(O[Si](Cc1ccccc1)(Cc1ccccc1)Cc1ccccc1)N(CCCl)CCCl
endpoint: median tumor weight change, dose: 62.0 mg/kg/injection, schedule: Q01DX001 (ip), vehicle: saline with Tween-80
  T/C: 159 % of control
endpoint: median tumor weight change, dose: 62.5 mg/kg/injection, schedule: Q01DX001 (ip), vehicle: saline with Tween-80
  T/C: 98 % of control and 109 % of control

## O=c1[nH]c(=O)c2nc(-c3cccnc3)cnc2[nH]1
[1]
  T/C: 122 % of control
[2]
  T/C: 93 % of control
[3]
  T/C: 58 % of control
[4]
  T/C: 93 % of control
[5]
  T/C: 90 % of control
endpoint: median tumor weight (est.), dose: 400.0 mg/kg/injection, schedule: Q07DX005 (ip), vehicle: saline
  T/C: 62 % of control

## CS(=O)(=O)[O-].CS(=O)(=O)[O-].NC1CCCCC1N.[Pt+4] (stereo not given)
endpoint: median tumor weight (est.), dose: 0.63 mg/kg/injection, schedule: Q07DX005 (ip), vehicle: dextrose
  T/C: 96 % of control
endpoint: median tumor weight (est.), dose: 5.0 mg/kg/injection, schedule: Q07DX005 (ip), vehicle: dextrose
  T/C: 4 % of control and 8 % of control

## C[C@@]12C(=O)OC(=O)[C@]1(C)[C@H]1CC[C@@H]2O1
endpoint: median tumor weight change, dose: 0.31 mg/kg/injection, schedule: Q01DX001 (ip), vehicle: Klucel (hydroxypropylcellulose) (HPC)
  T/C: 100 % of control
endpoint: median tumor weight change, dose: 1.25 mg/kg/injection, schedule: Q01DX001 (ip), vehicle: Klucel (hydroxypropylcellulose) (HPC)
  T/C: 118 % of control

## Nc1nc(/C=C(/O)c2ccccc2)c2ncn(C3OC(CO)C(O)C3O)c2n1 (stereo not given)
endpoint: median tumor weight change, dose: 50.0 mg/kg/injection, schedule: Q01DX001 (ip), vehicle: distilled water + Tween-80
  T/C: 91 % of control

## CC1(C)N=C(N)N=C(N)N1c1ccc(CCCCc2ccc(S(=O)(=O)F)cc2Cl)c(Cl)c1
endpoint: median tumor weight (est.), dose: 12.5 mg/kg/injection, schedule: Q07DX005 (ip), vehicle: other
  T/C: 95 % of control
[1]
  T/C: 42 % of control
endpoint: median tumor weight (est.), dose: 12.5 mg/kg/injection, schedule: Q07DX005 (ip), vehicle: suspension in saline
  T/C: 114 % of control
[2]
  T/C: 60 % of control
[6]
  T/C: 105 % of control
[3]
  T/C: 39 % of control
[7]
  T/C: 46 % of control
[4]
  T/C: 20 % of control
[8]
  T/C: 26 % of control
[5]
  T/C: 5 % of control
[9]
  T/C: 2 % of control
endpoint: median tumor weight change, dose: 90.0 mg/kg/injection, schedule: Q01DX001 (ip), vehicle: saline with Tween-80
  T/C: 50 % of control
endpoint: median tumor weight change, dose: 100.0 mg/kg/injection, schedule: Q01DX001 (ip), vehicle: saline with Tween-80
  T/C: 53 % of control
endpoint: median tumor weight change, dose: 112.5 mg/kg/injection, schedule: Q01DX001 (ip), vehicle: saline with Tween-80
  T/C: 84 % of control
endpoint: median tumor weight change, dose: 133.0 mg/kg/injection, schedule: Q01DX001 (ip), vehicle: saline with Tween-80
  T/C: 64 % of control
endpoint: median tumor weight change, dose: 200.0 mg/kg/injection, schedule: Q01DX001 (ip), vehicle: saline with Tween-80
  T/C: 12 % of control and 25 % of control
endpoint: median tumor weight change, dose: 225.0 mg/kg/injection, schedule: Q01DX001 (ip), vehicle: saline with Tween-80
  T/C: 49 % of control
endpoint: median tumor weight change, dose: 300.0 mg/kg/injection, schedule: Q01DX001 (ip), vehicle: saline with Tween-80
  T/C: 27 % of control
endpoint: median tumor weight change, dose: 450.0 mg/kg/injection, schedule: Q01DX001 (ip), vehicle: saline with Tween-80
  T/C: 12 % of control

## CC(C)C(N)C(=O)Nc1nncs1 (stereo not given)
endpoint: median tumor weight change, dose: 125.0 mg/kg/injection, schedule: Q01DX001 (ip), vehicle: saline
  T/C: 119 % of control
endpoint: median tumor weight change, dose: 250.0 mg/kg/injection, schedule: Q01DX001 (ip), vehicle: saline
  T/C: 171 % of control
endpoint: median tumor weight change, dose: 500.0 mg/kg/injection, schedule: Q01DX001 (ip), vehicle: saline
  T/C: 82 % of control
endpoint: median tumor weight change, dose: 1000.0 mg/kg/injection, schedule: Q01DX001 (ip), vehicle: saline
  T/C: 81 % of control

## [Na+]
endpoint: median tumor weight change, dose: 75.0 mg/kg/injection, schedule: Q01DX001 (ip), vehicle: water
  T/C: 68 % of control
endpoint: median tumor weight change, dose: 150.0 mg/kg/injection, schedule: Q01DX001 (ip), vehicle: water
  T/C: 93 % of control
endpoint: median tumor weight change, dose: 300.0 mg/kg/injection, schedule: Q01DX001 (ip), vehicle: water
  T/C: 66 % of control
endpoint: median tumor weight change, dose: 600.0 mg/kg/injection, schedule: Q01DX001 (ip), vehicle: water
  T/C: 85 % of control
endpoint: median tumor weight change, dose: 1200.0 mg/kg/injection, schedule: Q01DX001 (ip), vehicle: water
  T/C: 67 % of control

## Nc1nc2c(ncn2C2OC(CO)C(O)C2O)c(=O)[nH]1.Nc1nc2c(ncn2C2OC(CO)C(O)C2O)c(=O)[nH]1.[NH2-].[NH2-].[Pt+2] (stereo not given)
endpoint: median tumor weight (est.), dose: 12.5 mg/kg/injection, schedule: Q07DX005 (ip), vehicle: water
  T/C: 52 % of control
endpoint: median tumor weight (est.), dose: 25.0 mg/kg/injection, schedule: Q07DX005 (ip), vehicle: water
  T/C: 61 % of control
endpoint: median tumor weight (est.), dose: 50.0 mg/kg/injection, schedule: Q07DX005 (ip), vehicle: water
  T/C: 34 % of control
endpoint: median tumor weight (est.), dose: 100.0 mg/kg/injection, schedule: Q07DX005 (ip), vehicle: water
  T/C: 51 % of control
endpoint: median tumor weight (est.), dose: 200.0 mg/kg/injection, schedule: Q07DX005 (ip), vehicle: water
  T/C: 40 % of control

## Clc1ccc2nnnn2n1
endpoint: median tumor weight change, dose: 125.0 mg/kg/injection, schedule: Q01DX001 (ip), vehicle: saline with Tween-80
  T/C: 49 % of control
endpoint: median tumor weight change, dose: 250.0 mg/kg/injection, schedule: Q01DX001 (ip), vehicle: saline with Tween-80
  T/C: 61 % of control

## CCOC(C)C(/C=N/NC(N)=S)=NNC(N)=S (stereo not given)
[10]
  T/C: 87 % of control and 109 % of control
[11]
  T/C: 85 % of control and 88 % of control
[12]
  T/C: 78 % of control and 96 % of control

## NC(=O)c1ncn2c(=O)n(CCCl)nnc12
endpoint: median tumor weight change, dose: 6.25 mg/kg/injection, schedule: Q01DX001 (ip), vehicle: suspension in saline
  T/C: 69 % of control
endpoint: median tumor weight change, dose: 12.5 mg/kg/injection, schedule: Q01DX001 (ip), vehicle: suspension in saline
  T/C: 76 % of control
endpoint: median tumor weight change, dose: 25.0 mg/kg/injection, schedule: Q01DX001 (ip), vehicle: suspension in saline
  T/C: 45 % of control
endpoint: median tumor weight change, dose: 50.0 mg/kg/injection, schedule: Q01DX001 (ip), vehicle: suspension in saline
  T/C: 41 % of control and 46 % of control

## BrC1c2cccc3cccc(c23)C1Br (stereo not given)
endpoint: median tumor weight (est.), dose: 12.5 mg/kg/injection, schedule: Q07DX005 (ip), vehicle: saline with Tween-80
  T/C: 113 % of control
[10]
  T/C: 88 % of control
[11]
  T/C: 111 % of control
[12]
  T/C: 117 % of control
endpoint: median tumor weight (est.), dose: 200.0 mg/kg/injection, schedule: Q07DX005 (ip), vehicle: saline with Tween-80
  T/C: 85 % of control

## CN(C)c1ccc2c(NCCCCCCNc3ccnc4cc(N(C)C)ccc34)ccnc2c1
endpoint: median tumor weight change, dose: 15.62 mg/kg/injection, schedule: Q01DX001 (ip), vehicle: distilled water + Tween-80 + alcohol
  T/C: 66 % of control
endpoint: median tumor weight change, dose: 31.0 mg/kg/injection, schedule: Q01DX001 (ip), vehicle: distilled water + Tween-80 + alcohol
  T/C: 94 % of control
endpoint: median tumor weight change, dose: 31.25 mg/kg/injection, schedule: Q01DX001 (ip), vehicle: distilled water + Tween-80 + alcohol
  T/C: 96 % of control
endpoint: median tumor weight change, dose: 62.5 mg/kg/injection, schedule: Q01DX001 (ip), vehicle: distilled water + Tween-80 + alcohol
  T/C: 3 % of control
endpoint: median tumor weight change, dose: 62.5 mg/kg/injection, schedule: Q01DX001 (ip), vehicle: distilled water + Tween-80
  T/C: 48 % of control
endpoint: median tumor weight change, dose: 125.0 mg/kg/injection, schedule: Q01DX001 (ip), vehicle: distilled water + Tween-80 + alcohol
  T/C: 51 % of control
endpoint: median tumor weight change, dose: 250.0 mg/kg/injection, schedule: Q01DX001 (ip), vehicle: distilled water + Tween-80 + alcohol
  T/C: 8 % of control and 28 % of control

## CC(=O)OC(C)C1C2=C(C(=O)CC1(C)O)C(=O)c1c(ccc(-c3ccc4c(c3O)C(=O)C3=C(C4=O)C(C(C)OC(C)=O)C(C)(O)CC3=O)c1O)C2=O (stereo not given)
endpoint: median tumor weight change, dose: 3.75 mg/kg/injection, schedule: Q01DX001 (ip), vehicle: saline with Tween-80
  T/C: 105 % of control
endpoint: median tumor weight change, dose: 7.5 mg/kg/injection, schedule: Q01DX001 (ip), vehicle: saline with Tween-80
  T/C: 42 % of control
endpoint: median tumor weight change, dose: 15.0 mg/kg/injection, schedule: Q01DX001 (ip), vehicle: saline with Tween-80
  T/C: 88 % of control
endpoint: median tumor weight change, dose: 30.0 mg/kg/injection, schedule: Q01DX001 (ip), vehicle: saline with Tween-80
  T/C: 83 % of control

## Nc1nc2nc[nH]c2c(=O)[nH]1
[6]
  T/C: 73 % of control
[7]
  T/C: 73 % of control
[8]
  T/C: 69 % of control
[9]
  T/C: 73 % of control

— PubChem BioAssay AID220 (DTP/NCI, 2004)
